Assays:
[1] = tested on: L-lactate déshydrogénase; assay: Initial rate of oxidation of the reduced forms with L-lactate dehydrogenase (Example 7); type: biochemical; settings: reduced forms after Na2S2O4 treatment; coenzyme 0,17 mM, Tris HCl 50 mM, 16 mM sodium pyruvate, 17 mU L-lactate dehydrogenase; NADH = 100
Protocol: Ces mêmes produits, mais sous forme réduite après traitement au Na2S2O4, sont soumis à un essai de mesure de la vitesse initiale d'oxydation avec l'enzyme L-lactate déshydrogénase.
Cette mesure s'effectue sur un milieu réactionnel de 0,5 ml contenant le coenzyme 0,17 mM (exprimé comme dans l'exemple 6) le même tampon 50 mM, 16 mM en pyruvate de sodium et 17 mU de L-lactate déshydrogènase à 700 U/mg. A titre comparatif la même mesure est effectuée sur NADH et le dérivé de formule 4 réduit.

[2] = tested on: hydrogénase; assay: Initial rate of reduction with a hydrogenase (Example 6); type: biochemical; settings: coenzyme 0,17 mM expressed as bound NAD+, Tris HCl pH8,0 50 mM, hydrogen at saturation, 29 mU hydrogenase; NAD+ = 100
Protocol: Les produits A à E préparés selon les procédés décrits dans les exemples 1 à 5 précédents sont soumis à un essai de mesure de la vitesse initale de réduction avec une hydrogénase.
Cette mesure s'effectue sur un milieu réactionnel de 0,28 ml contenant le coenzyme 0,17 mM, exprimé en NAD^+ lié pour les dérivés du NAD^+, 50 mM en tampon pH8,0 Tris HCl, de l'hydrogène à saturation et 29 mU d'enzyme hy- drogènase à 21 U/mg.
A titre comparatif la même mesure est effectuée sur le noyau NAD^+ et sur les dérivés substitués de formules (4) et (5).

NCCCCCCNc1nc2c(N)ncnc2n1[C@@H]1O[C@H](COP(=O)(O)OP(=O)(O)OC[C@H]2O[C@@H](N3C=CCC(C(N)=O)=C3)[C@H](O)[C@@H]2O)[C@@H](O)[C@H]1O [Dérivé (4) réduit]
Taux initial d'oxydation (%) [1]: 62,5%

NCCCCCCNc1nc2c(N)ncnc2n1[C@@H]1O[C@H](COP(=O)(O)OP(=O)([O-])OC[C@H]2O[C@@H]([n+]3cccc(C(N)=O)c3)[C@H](O)[C@@H]2O)[C@@H](O)[C@H]1O [Dérivé (4), C^8-(6-aminohexyl)-amino-NAD^+]
Taux initial de réduction (%) [2]: 50%

NCCNc1ncnc2c1ncn2[C@@H]1O[C@H](COP(=O)(O)OP(=O)([O-])OC[C@H]2O[C@@H]([n+]3cccc(C(N)=O)c3)[C@H](O)[C@@H]2O)[C@@H](O)[C@H]1O [Dérivé (5), N^6-(2-aminoéthyl)-NAD^+]
Taux initial de réduction (%) [2]: 90%

NC(=O)C1=CN([C@@H]2O[C@H](COP(=O)(O)OP(=O)(O)OC[C@H]3O[C@@H](n4cnc5c(N)ncnc54)[C@H](O)[C@@H]3O)[C@@H](O)[C@H]2O)C=CC1 [NADH, nicotinamide adénine dinucléotide]
Taux initial d'oxydation (%) [1]: 100%

NC(=O)c1ccc[n+]([C@@H]2O[C@H](COP(=O)([O-])OP(=O)(O)OC[C@H]3O[C@@H](n4cnc5c(N)ncnc54)[C@H](O)[C@@H]3O)[C@@H](O)[C@H]2O)c1 [NAD^+]
Taux initial de réduction (%) [2]: 100%
